Reference: ChEMBL document CHEMBL1158636, “Discovery of a novel sulfonamide-pyrazolopiperidine series as potent and efficacious gamma-secretase inhibitors (Part II)” (Bioorg Med Chem Lett, 2010)
pIC50: −log10 of the molar value.

Key:
[1] = molecular target: Gamma-secretase; assay: Inhibition of gamma-secretase-mediated notch cleavage in human SNC cells by ELISA; assay type: cell-based
[2] = Inhibition of gamma-secretase-mediated APP cleavage assessed as amyloid beta40 level after 2 hrs by ELISA
[3] = molecular target: Gamma-secretase (Homo sapiens) (UniProt Q96BI3+Q9NZ42+Q8WW43+P49768+Q92542+P49810); assay: Inhibition of gamma-secretase-mediated APP cleavage in human SNC cells by ELISA; assay type: cell-based
[4] = Inhibition of gamma-secretase-mediated notch cleavage after 2 hrs by ELISA
[5] = Oxidative metabolic stability in human liver microsomes assessed as compound remaining at 1 uM after 30 mins in presence of 1 mM NADPH; assay type: ADME, Microsome; details: liver microsomes, read-out: Stability
[6] = Oxidative metabolic stability in human liver microsomes assessed as compound remaining at 2 uM after 30 mins in presence of 1 mM UDPGA; assay type: ADME, Microsome; details: liver microsomes, read-out: Stability

SMILES	pIC50 [1]	pIC50 [2]	ED50 [3] [nM]	pIC50 [4]	remaining at 0.5 h, 1 µM [5] [%]	remaining at 0.5 h, 2 µM [6] [%]
COC[C@H]1C(=O)c2[nH]ncc2[C@@H](C2CC2)N1S(=O)(=O)c1ccc(C(F)(F)F)cc1 (relative stereo)	< 4.40	8.49	> 10000	6.90	14	–
CC[C@@H]1c2cn[nH]c2C(=O)[C@H](CC)N1S(=O)(=O)c1ccc(C(F)(F)F)nc1 (relative stereo)	5.63	9.10	21	7.44	57	83
C[C@@H]1c2cn[nH]c2C(=O)[C@H](C)N1S(=O)(=O)c1ccc(C(F)(F)F)nc1 (stereo in doubt)	4.74	7.88	1100	6.84	67	91
CC(C)(C)C1C(=O)c2[nH]ncc2C(C2CC2)N1S(=O)(=O)c1ccc(C(F)(F)F)nc1 (stereo in doubt; 3t)	–	–	0.6	–	–	–
CCC1c2cn[nH]c2C(=O)CN1S(=O)(=O)c1ccc(C(F)(F)F)cc1 (stereo not drawn)	< 4.40	8.19	> 10000	–	19	–
O=C1CN(S(=O)(=O)c2ccc(C(F)(F)F)cc2)C(C(F)(F)F)c2cn[nH]c21 (stereo not drawn)	< 4.40	8.59	> 10000	7.29	1	6
O=S(=O)(c1ccc(C(F)(F)F)cc1)N1CC(F)(F)c2[nH]ncc2C1C(F)(F)F (racemic)	6.39	9.05	4	8.00	84	35
O=C1c2[nH]ncc2C(C2CC2)N(S(=O)(=O)c2ccc(C(F)(F)F)nc2)C1c1cc(F)cc(F)c1 (racemic)	5.40	9.15	> 1000	7.77	9	–
O=C1c2[nH]ncc2C(C2CC2)N(S(=O)(=O)c2ccc(C(F)(F)F)nc2)C1C1CCOCC1 (racemic)	6.73	9.00	1	7.72	57	64
CC1C(=O)c2[nH]ncc2C(C)N1S(=O)(=O)c1ccc(C(F)(F)F)cc1 (stereo not drawn)	< 4.40	8.17	5110	7.05	63	77
O=C1CN(S(=O)(=O)c2ccc(C(F)(F)F)cc2)[C@H](C2CC2)c2cn[nH]c21	< 4.40	8.04	> 10000	6.45	–	–
O=C1c2[nH]ncc2C(C2CC2)N(S(=O)(=O)c2ccc(C(F)(F)F)cc2)C12CCCC2 (racemic)	6.63	9.40	2	8.10	3	–
CC(C)(C)C1C(=O)c2[nH]ncc2C(C2CC2)N1S(=O)(=O)c1ccc(C(F)(F)F)nc1 (stereo in doubt; 3u)	–	–	16	–	–	–
O=C1c2[nH]ncc2C(C2CC2)N(S(=O)(=O)c2ccc(Cl)s2)C12CC2 (racemic)	6.24	8.70	7	7.74	1	–
C[C@@H]1C(=O)c2[nH]ncc2[C@H](C)N1S(=O)(=O)c1ccc(C(F)(F)F)nc1 (stereo in doubt)	< 4.40	7.04	> 10000	5.64	62	–
CC[C@@H]1C(=O)c2[nH]ncc2[C@H](CC)N1S(=O)(=O)c1ccc(Cl)cc1 (stereo in doubt)	6.26	9.52	6	–	6	77

Other lines, results leading:

pIC50 [1]	pIC50 [2]	ED50 [3] [nM]	pIC50 [4]	remaining at 0.5 h, 1 µM [5] [%]	remaining at 0.5 h, 2 µM [6] [%]	SMILES
< 4.40	8.25	6000	6.71	5	42	O=C1CN(S(=O)(=O)c2ccc(C(F)(F)F)nc2)C(C2CC2)c2cn[nH]c21 (racemic)
4.60	8.52	374	7.18	21	87	O=C1c2[nH]ncc2[C@@H](C2CC2)N(S(=O)(=O)c2ccc(C(F)(F)F)nc2)[C@@H]1C1CC1 (relative stereo)
–	–	4	–	–	–	O=C1c2[nH]ncc2C(C2CC2)N(S(=O)(=O)c2ccc(C(F)(F)F)nc2)C12CC2 (stereo in doubt; 16f)
6.52	8.74	6	7.30	22	66	CC[C@@H]1c2cn[nH]c2C(F)(F)[C@H](CC)N1S(=O)(=O)c1ccc(C(F)(F)F)nc1 (relative stereo)
–	–	0.5	–	–	–	O=S(=O)(c1ccc(C(F)(F)F)nc1)N1C(C2CC2)c2cn[nH]c2C(F)(F)C12CC2 (racemic)
–	–	86	–	–	–	O=S(=O)(c1ccc(C(F)(F)F)nc1)N1C(C2CC2)c2cn[nH]c2C(F)(F)C12CC2 (stereo in doubt; 17c)
–	–	7	–	–	–	O=C1c2[nH]ncc2C(C2CC2)N(S(=O)(=O)c2ccc(C(F)(F)F)nc2)C12CC2 (racemic)
6.16	8.74	–	7.46	86	91	O=C1c2[nH]ncc2C(C2CC2)N(S(=O)(=O)c2ccc(C(F)(F)F)nc2)C12CC2 (racemic) [4'-CYCLO PROPYL-5'-(6-(TRIFLUORO METHYL)PYRIDIN-3-YL SULFONYL)-4',5'-DIHYDROSPIRO[CYCLOPROPANE-1,6'-PYRAZOLO[4,3-C]PYRIDIN]-7'(1'H)-ONE (ENANTIOMERIC MIX)]
–	–	1850	–	–	–	O=C1c2[nH]ncc2C(C2CC2)N(S(=O)(=O)c2ccc(C(F)(F)F)cn2)C12CC2 (stereo in doubt; 16h)
–	–	0.3	–	–	–	O=S(=O)(c1ccc(C(F)(F)F)nc1)N1C(C2CC2)c2cn[nH]c2C(F)(F)C12CC2 (stereo in doubt; 17b)
–	–	2680	–	–	–	O=C1c2[nH]ncc2C(C2CC2)N(S(=O)(=O)c2ccc(C(F)(F)F)nc2)C12CC2 (stereo in doubt; 16e)
–	–	87	–	–	–	O=C1c2[nH]ncc2C(C2CC2)N(S(=O)(=O)c2ccc(C(F)(F)F)cn2)C12CC2 (racemic)
7.15	9.70	–	8.22	8	66	CC(C)(C)C1C(=O)c2[nH]ncc2C(C2CC2)N1S(=O)(=O)c1ccc(C(F)(F)F)nc1 (stereo in doubt; 3t) [6-TERT-BUTYL-4-CYCLOPROPYL-5-(6-(TRIFLUOROMETHYL)PYRIDIN-3-YLSULFONYL)-5,6-DIHYDRO-1H-PYRAZOLO[4,3-C]PYRIDIN-7(4H)-ONE (STRUCTURAL MIX)]
5.21	7.62	–	6.30	76	89	O=C1c2[nH]ncc2C(C2CC2)N(S(=O)(=O)c2ccc(C(F)(F)F)cn2)C12CC2 (racemic) [4'-CYCLOPROPYL-5'-(5-(TRIFLUORO METHYL)PYRIDIN-2-YL SULFONYL)-4',5'-DIHYDROSPIRO[CYCLOPROPANE-1,6'-PYRAZOLO[4,3-C]PYRIDIN]-7'(1'H)-ONE (ENANTIOMERIC MIX)]
–	–	26	–	–	–	O=C1c2[nH]ncc2C(C2CC2)N(S(=O)(=O)c2ccc(C(F)(F)F)cn2)C12CC2 (stereo in doubt; 16i)
